Laboratory results published in patent EP4324461A1, “(E)-N-CINAMOYLAMINOALKANOLES WITH MELANOGENESIS INHIBITORY ACTIVITY” (UNIWERSYTET JAGIELLONSKI, priority 2022, dated 2024).

How the values were obtained:
Primary melanocytes [1] = assay: Safety, MTT test in primary melanocytes; assay type: cell-based; conditions: 48 hours
Experimental: (§1) In order to test the safety of the compounds, both normal human cells were used: keratinocytes (HaCaT), fibroblasts (BJ), primary melanocytes that occur in the skin, as well as human cancer cells: the hepatocarcinoma line HepG2 and the neuroblastoma line SH-SY5Y, which are considered a model for the assessment of hepatocytotoxicity and neurocytotoxicity. The concentrations of the tested compounds in the range of 250-100 µM were used in the studies. The cell lines used in the research were purchased from the American Type Culture Collection (ATCC) and were cultured in media recommended by the manufacturer with the addition of FBS and antibiotics in an incubator ensuring appropriate culture conditions, i.e. humidity, temperature and CO2 concentration. Cells were seeded into multiwell plates and incubated with the test compounds for 48 hours. After this time, MTT and LDH tests were performed to assess cell viability. The MTT test is based on the ability to transform the substrate: [3-(4,5-dimethyl-2-thiazolyl)-2,5-diphenyl-2H-tetrazolium bromide into a colored product only by living cells. The absorbance at 570 nm, which corresponds to the absorption maximum for the product, is directly proportional to cell viability. The LDH test is based on testing the activity of the enzyme lactate dehydrogenase in the culture medium, which is released from cells as a result of damage to the cell membrane, e.g. as a result of cell death. Triton X-100 was used as a positive control in the test. The determination is colorimetric, the substrate is transformed by the released enzyme into a colored product, an increase in absorbance indicates a larger amount of the released enzyme, and thus confirms greater damage to cell membranes. Tables 7 and 8 present the results obtained, which correspond to the viability of cells incubated with the compounds in relation to the viability of cells constituting a control sample, i.e. incubated with the solvent (DMSO) at the same concentration as in the case of the groups tested in the MTT test or in relation to the results obtained for the Triton X-100 positive control in the LDH test. They indicate that the compounds are safe at the concentrations tested. Table 7. Viability of tested normal human cell lines: keratinocytes (HaCaT), fibroblasts (BJ) and primary melanocytes after incubation with the tested compounds - determination in the MTT test (% of solvent control ± SD) and LDH (percentage of positive control - Triton X-100.

Primary melanocytes [2] = assay: Safety, LDH test in primary melanocytes; assay type: cell-based; conditions: 48 hours, positive control Triton X-100
Experimental: as §1

Fibroblasts (BJ) = assay: Safety, LDH test in fibroblasts; assay type: cell-based; conditions: 48 hours, positive control Triton X-100
Experimental: as §1

neuroblastoma SH-SY5Y = assay: Safety, LDH test in SH-SY5Y; assay type: cell-based; conditions: 48 hours, positive control Triton X-100
Experimental: as §1

[3] = system: reconstructed human epidermis containing melanocytes MelanoDerm™ MEL-300-B; assay: Melanogenesis inhibition in reconstructed human epidermis containing melanocytes (MelanoDerm); assay type: cell-based; conditions: 14 days; for Melanin content [% control, mean ± SD]: 7 applications; for Viability [% control, mean ± SD]: MTT
Experimental: (§2) The research was carried out on reconstructed human epidermis containing melanocytes MelanoDerm™ MEL-300-B from MatTek (Bratislava, Slovakia). The ratio of keratinocytes to melanocytes in the epidermis used is 10:1. Only medium purchased from the same manufacturer (EPI-100-NMM-113) was used to culture the epidermis during the experiments. Once the epidermis was obtained, it was transferred to 12-well plates containing 5 mL of medium/well. Plates were used to enable proper contact of the lower parts of the inserts with the substrate (so-called hanging-top plate). Solutions of the compounds were prepared immediately before their application. The solutions were applied to the inserts using a positive displacement pipette and then distributed using a sterile glass bulb headed Pasteur pipette. The application was repeated every 48 hours, a total of 7 applications were performed. Before the next application, each insert was rinsed with sterile DPBS and dried with a sterile cotton buds. The application was also accompanied by a change of the medium. […] The epidermis was cultured in an incubator ensuring appropriate humidity, temperature (37 °C) and CO2 concentration (5%).
The experiment was conducted for 14 days. After this time, the inserts were rinsed with DPBS and dried with a cotton swab. For the selected pool of inserts, tissue viability was assessed using the MTT (Thiazolyl Blue Tetrazolium bromide) test, the remaining ones were used to determine the amount of melanin. To assess viability, the inserts were transferred to 24-well plate containing 0.3 mL of DMEM medium with 1 mg/mL MTT and incubated for 3 hours in an incubator. The epidermis was then placed in 2 mL of isopropanol and the resulting formazan was extracted for 2 hours at room temperature. The absorbance of the samples was measured at 570 nm in a microplate reader and correlated with the absorbance of the control by the formula: % Viability = [OD (570 nm) for test compound/OD (570 nm) for control] × 100. To determine the amount of melanin, the inserts were incubated in 5% sodium bicarbonate for 30 min, then dried and placed in 0.5 mL of Solvable™ reagent, which caused complete lysis of the epidermis. After heating at 95 °C, the absorbance of the samples was measured at 405 nm in a microplate reader. On this basis, the reduction in the amount of melanin was calculated in relation to the control sample. The absorbance results were also correlated with a standard curve for synthetic melanin. […] Table 5. Viability and melanin content in the MelanoDerm epidermis after application of the tested samples, calculated on the basis of absorbance measurements.
as §2, with “Only media” for “Only medium”, “cotton bud.” for “cotton buds.”
The experiment was conducted for 14 days. After this time, the inserts were rinsed with DPBS and dried with a cotton bud. […]

S. typhimurium TA1537 = assay: Ames microplate test, TA1537; assay type: cell-based, Salmonella typhimurium;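 further: reference level is the mean solvent-control yellow wells plus SD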
Experimental: Bacteria were grown overnight in growth medium.
Table 9. Ames microplate test results.

Compound | Primary melanocytes MTT (Primary melanocytes [1]; 100 µM) | Primary melanocytes MTT (Primary melanocytes [1]; 150 µM) | Primary melanocytes MTT (Primary melanocytes [1]; 200 µM) | Primary melanocytes MTT (Primary melanocytes [1]; 250 µM) | Primary melanocytes LDH (Primary melanocytes [2]; 100 µM) | Primary melanocytes LDH (Primary melanocytes [2]; 150 µM) | Primary melanocytes LDH (Primary melanocytes [2]; 200 µM) | Primary melanocytes LDH (Primary melanocytes [2]; 250 µM) | Fibroblasts (BJ) LDH (Fibroblasts (BJ); 100 µM) | Fibroblasts (BJ) LDH (Fibroblasts (BJ); 150 µM) | Fibroblasts (BJ) LDH (Fibroblasts (BJ); 200 µM) | Fibroblasts (BJ) LDH (Fibroblasts (BJ); 250 µM) | Neuroblastoma SH-SYSY LDH (neuroblastoma SH-SY5Y; 100 µM) | Neuroblastoma SH-SYSY LDH (neuroblastoma SH-SY5Y; 150 µM) | Neuroblastoma SH-SYSY LDH (neuroblastoma SH-SY5Y; 200 µM) | Neuroblastoma SH-SYSY LDH (neuroblastoma SH-SY5Y; 250 µM) | Melanin content [% control, mean ± SD] ([3]; 1.0% in 50% PEG (10 µL)) [% control] | Viability [% control, mean ± SD] ([3]; 1.0% in 50% PEG (10 µL)) [% control] | Increase in the number of yellow wells compared to the reference level (S. typhimurium TA1537; 0.5 mM, +S9) | Increase in the number of yellow wells compared to the reference level (S. typhimurium TA1537; 0.5 mM, without S9) | also measured
O=C(/C=C/c1ccc(Cl)cc1)NCCCCCO [Compound A-111, (2E)-3-(4-chlorophenyl)-N-(5-hydroxypentyl)prop-2-enamide] | 104.51±1.19 % of solvent control | 103.09±1.79 % of solvent control | 99.25±1.92 % of solvent control | 93.39±1.60 % of solvent control | 3.31 percentage of positive control | 4.95 percentage of positive control | 13.38 percentage of positive control | 18.41 percentage of positive control | 5.25 percentage of positive control | 5.37 percentage of positive control | 8.43 percentage of positive control | 14.90 percentage of positive control | 4.90 percentage of positive control | 4.61 percentage of positive control | 5.98 percentage of positive control | 6.77 percentage of positive control | 94.95±3.57 | 101.45±6.45 | 0.27 | 0.80 | Melanin content [% control, mean ± SD] ([3]; 1.0% in 50% PEG (25 µL)): 81.23±6.53 % control; Viability [% control, mean ± SD] ([3]; 1.0% in 50% PEG (25 µL)): 85.67±7.25 % control; Melanin content [% control, mean ± SD] ([3]; 2.0% in 50% PEG (25 µL)): 67.26±9.18 % control; Viability [% control, mean ± SD] ([3]; 2.0% in 50% PEG (25 µL)): 106.64±7.78 % control; Increase in the number of yellow wells compared to the reference level (S. typhimurium TA1537; 1.0 mM, +S9): 0.45; Increase in the number of yellow wells compared to the reference level (S. typhimurium TA1537; 1.0 mM, without S9): 0.54; Increase in the number of yellow wells compared to the reference level (S. typhimurium TA1537; 2.0 mM, +S9): 0.27; Increase in the number of yellow wells compared to the reference level (S. typhimurium TA1537; 2.0 mM, without S9): 0.54
O=C(/C=C/c1ccccc1)NCCCCCO [Compound A-133, (2E)-N-(5-hydroxypentyl)-3-phenylprop-2-enamide] | 103.69±2.57 % of solvent control | 101.88±2.47 % of solvent control | 97.05±2.96 % of solvent control | 88.88±2.26 % of solvent control | 4.68 percentage of positive control | 7.59 percentage of positive control | 16.71 percentage of positive control | 19.45 percentage of positive control | 5.00 percentage of positive control | 4.47 percentage of positive control | 14.72 percentage of positive control | 28.31 percentage of positive control | 5.33 percentage of positive control | 6.93 percentage of positive control | 8.49 percentage of positive control | 13.32 percentage of positive control | 98.62±9.47 | 101.22±6.52 | 0.18 | 1.07 | Increase in the number of yellow wells compared to the reference level (S. typhimurium TA1537; 1.0 mM, +S9): 0.36; Increase in the number of yellow wells compared to the reference level (S. typhimurium TA1537; 1.0 mM, without S9): 0.54; Increase in the number of yellow wells compared to the reference level (S. typhimurium TA1537; 2.0 mM, +S9): 0.27; Increase in the number of yellow wells compared to the reference level (S. typhimurium TA1537; 2.0 mM, without S9): 0.54
